Read-outs that look alike come from different tables or passages of the source.
Tests used:
[1] = target: T1, α1G T-type calcium channel (Homo sapiens, UniProt O43497); assay: Assay for % inhibiting activity against T-type calcium channel using FDSS6000 (fluo-3 calcium imaging, KCl activation); assay type: cell-based
T1 construct: host or cells: HEK293
How it was run: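 Percent inhibition derived from […] area against untreated control (100%), after 75 s compound pre-exposure and 75 mM KCl activation. Cells: HEK293 with stable α1G plus Kir2.1, fluo-3/AM-labelled (5 μM), assayed in pH 7.4 HEPES containing 10 mM CaCl2.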

[2] = HEK293, 10 μM, HEK293 cells stably expressing α1G T-type calcium channel and Kir2.1, compounds of the examples, read-out: FDSS (% inhibition)/10uM
[3] = 10 μM, FDSS (% inhibition), comparative compounds where R6 is a phenyl group, read-out: FDSS

T1 sequence (O43497 whole entry): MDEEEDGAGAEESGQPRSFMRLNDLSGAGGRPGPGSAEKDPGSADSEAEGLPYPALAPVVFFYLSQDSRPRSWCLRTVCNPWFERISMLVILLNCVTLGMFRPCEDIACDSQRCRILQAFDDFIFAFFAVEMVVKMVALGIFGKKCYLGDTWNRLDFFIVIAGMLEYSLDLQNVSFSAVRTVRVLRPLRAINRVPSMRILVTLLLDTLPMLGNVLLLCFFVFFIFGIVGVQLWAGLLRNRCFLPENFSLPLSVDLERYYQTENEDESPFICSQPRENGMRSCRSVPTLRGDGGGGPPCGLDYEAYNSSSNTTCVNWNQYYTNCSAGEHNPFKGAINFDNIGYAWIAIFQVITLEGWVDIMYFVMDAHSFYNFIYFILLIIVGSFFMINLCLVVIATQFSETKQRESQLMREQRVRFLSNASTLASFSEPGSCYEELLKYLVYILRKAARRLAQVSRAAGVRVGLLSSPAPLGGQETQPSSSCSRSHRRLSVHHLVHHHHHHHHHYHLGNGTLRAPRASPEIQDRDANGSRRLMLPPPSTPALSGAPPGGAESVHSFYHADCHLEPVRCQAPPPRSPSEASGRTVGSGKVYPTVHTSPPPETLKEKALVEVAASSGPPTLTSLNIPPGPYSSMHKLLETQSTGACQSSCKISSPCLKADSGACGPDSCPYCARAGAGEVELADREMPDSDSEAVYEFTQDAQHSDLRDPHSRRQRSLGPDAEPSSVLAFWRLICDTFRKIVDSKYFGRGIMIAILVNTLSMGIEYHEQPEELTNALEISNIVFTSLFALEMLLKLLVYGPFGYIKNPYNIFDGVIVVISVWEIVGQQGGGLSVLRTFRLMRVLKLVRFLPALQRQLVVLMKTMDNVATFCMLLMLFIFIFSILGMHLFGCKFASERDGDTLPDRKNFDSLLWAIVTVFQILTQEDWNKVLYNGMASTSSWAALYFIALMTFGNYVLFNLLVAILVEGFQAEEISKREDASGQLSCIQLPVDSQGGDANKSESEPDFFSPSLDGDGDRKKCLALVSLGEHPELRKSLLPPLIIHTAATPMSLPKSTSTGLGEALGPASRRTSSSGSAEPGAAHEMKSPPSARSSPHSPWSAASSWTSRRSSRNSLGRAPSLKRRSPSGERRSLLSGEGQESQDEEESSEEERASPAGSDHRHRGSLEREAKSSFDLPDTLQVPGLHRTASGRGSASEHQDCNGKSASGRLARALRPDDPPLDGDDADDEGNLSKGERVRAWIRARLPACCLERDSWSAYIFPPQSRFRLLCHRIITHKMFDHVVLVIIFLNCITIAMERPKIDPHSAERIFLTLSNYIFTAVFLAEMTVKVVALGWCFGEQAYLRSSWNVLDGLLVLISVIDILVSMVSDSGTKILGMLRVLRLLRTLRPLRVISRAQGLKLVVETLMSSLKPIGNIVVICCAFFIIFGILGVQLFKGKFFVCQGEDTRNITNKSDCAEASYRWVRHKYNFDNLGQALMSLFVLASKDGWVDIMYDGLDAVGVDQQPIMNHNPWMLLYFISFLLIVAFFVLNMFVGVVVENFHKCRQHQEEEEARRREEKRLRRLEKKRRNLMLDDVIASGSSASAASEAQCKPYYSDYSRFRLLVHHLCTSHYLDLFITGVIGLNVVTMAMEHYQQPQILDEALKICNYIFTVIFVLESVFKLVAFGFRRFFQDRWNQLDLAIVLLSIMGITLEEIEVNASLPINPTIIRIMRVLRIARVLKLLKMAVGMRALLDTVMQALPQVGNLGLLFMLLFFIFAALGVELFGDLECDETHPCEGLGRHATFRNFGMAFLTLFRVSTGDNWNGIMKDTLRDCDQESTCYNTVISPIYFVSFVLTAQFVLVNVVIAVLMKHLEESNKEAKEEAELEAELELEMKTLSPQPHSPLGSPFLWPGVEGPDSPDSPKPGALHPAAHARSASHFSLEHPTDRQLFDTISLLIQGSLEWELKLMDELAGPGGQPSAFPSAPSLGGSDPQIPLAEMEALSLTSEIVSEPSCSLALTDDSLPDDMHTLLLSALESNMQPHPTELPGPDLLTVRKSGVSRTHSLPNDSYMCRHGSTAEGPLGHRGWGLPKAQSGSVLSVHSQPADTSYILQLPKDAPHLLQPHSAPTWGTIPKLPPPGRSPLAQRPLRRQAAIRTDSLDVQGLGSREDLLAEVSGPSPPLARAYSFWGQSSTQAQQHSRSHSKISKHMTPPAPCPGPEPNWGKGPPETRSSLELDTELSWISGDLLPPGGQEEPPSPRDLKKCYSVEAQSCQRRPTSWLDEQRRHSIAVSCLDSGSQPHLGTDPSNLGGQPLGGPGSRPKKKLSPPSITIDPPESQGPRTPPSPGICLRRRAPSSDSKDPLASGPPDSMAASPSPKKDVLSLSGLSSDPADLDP

Row | inhibition at 10 µM [1, 2] [%] | melting point [°C] | inhibition at 10 µM [1, 3] [%] | FDSS (% inhibition)/10uM ([1]; 10 μM, HEK293 cells stably expressing α1G T-type calcium channel and Kir2.1, compounds of the examples) [%] | SMILES
1 | 48 | 201 to 203 |  |  | CC1SC(=NC2CCCC2)N(C)C1CC(=O)Nc1ccc(Cl)cc1.Cl (centres unmarked) [KHG24657, (2-cyclopentylimino-3,5-dimethyl-1,3-thiazolidine-4-yl)-N-(4-chlorophenyl)-acetamide hydrochloride]
2 | 38.3 | 206 to 208 |  |  | CN1C(=NC2CCCCC2)SCC1CC(=O)Nc1ccc(F)cc1F.Cl (centres unmarked) [KHG24081, (2-cyclohexylimino-3-methyl-1,3-thiazolidine-4-yl)-N-(2,4-difluorophenyl)-acetamide hydrochloride]
3 | 61.6 | 239 |  |  | CCCN1C(=NC23CC4CC(CC(C4)C2)C3)SCC1CC(=O)Nc1ccc(C)cc1.Cl (centres unmarked) [KHG24813, [2-(1-adamantylimino)-3-n-propyl-1,3-thiazolidine-4-yl]-N-(4-methylphenyl)-acetamide hydrochloride]
4 | 37.8 | 183.7 |  |  | Cl.O=C(CC1CSC(=NC2CCCCC2)N1C1CC1)Nc1cc(Cl)ccc1F (centres unmarked) [KHG24271, [2-cyclohexylimino-3-cyclopropyl-1,3-thiazolidine-4-yl]-N-(5-chloro-2-fluorophenyl)-acetamide hydrochloride]
5 | 64.7 | 173.6 to 174.8 |  |  | CCCN1C(=NC2CCCCC2)SCC1CC(=O)Nc1ccc(C(F)(F)F)cc1.Cl (centres unmarked) [KHG24404, [2-cyclohexylimino-3-(n-propyl)-1,3-thiazolidine-4-yl]-N-(4-trifluoromethylphenyl)-acetamide hydrochloride]
6 | 61.1 | 158.4 |  |  | CCCCc1ccc(NC(=O)CC2CSC(=NC3CCCCC3)N2CC)cc1.Cl (centres unmarked) [KHG24277, [2-cyclohexylimino-3-ethyl-1,3-thiazolidine-4-yl]-N-(4-n-butylphenyl)-acetamide hydrochloride]
7 | 37 | 164 |  |  | CC(C)N1C(=NC23CC4CC(CC(C4)C2)C3)SCC1CC(=O)Nc1ccc(Oc2ccccc2)cc1.Cl (centres unmarked) [KHG24833, [2-(1-adamantylimino)-3-isopropyl-1,3-thiazolidine-4-yl]-N-(4-phenoxyphenyl)-acetamide hydrochloride]
8 | 32.7 | 135 |  |  | CCCN1C(=NC23CC4CC(CC(C4)C2)C3)SCC1CC(=O)Nc1ccc(Oc2ccccc2)cc1.Cl (centres unmarked) [KHG24815, [2-(1-adamantylimino)-3-n-propyl-1,3-thiazolidine-4-yl]-N-(4-phenoxyphenyl)-acetamide hydrochloride]
9 | 59.8 | 153 to 154 |  |  | CCCCN1C(=NC2CCCCC2)SCC1CC(=O)Nc1cc(Cl)cc(Cl)c1.Cl (centres unmarked) [KHG24416, [2-cyclohexylimino-3-(n-butyl)-1,3-thiazolidine-4-yl]-N-(3,5-dichlorophenyl)-acetamide hydrochloride]
10 | 49.2 | 220 |  |  | CCCCN1C(=NC23CC4CC(CC(C4)C2)C3)SCC1CC(=O)Nc1ccc(C(F)(F)F)cc1.Cl (centres unmarked) [KHG24777, [2-(1-adamantylimino)-3-(n-butyl)-1,3-thiazolidine-4-yl]-N-(4-trifluoromethylphenyl)-acetamide hydrochloride]
11 | 48.4 | 223 |  |  | CN1C(=NC2CCCCC2)SCC1CC(=O)Nc1ccc(Cl)c(Cl)c1.Cl (centres unmarked) [KHG24531, (2-cyclohexylimino-3-methyl-1,3-thiazolidine-4-yl)-N-(3,4-dichlorophenyl)-acetamide hydrochloride]
12 |  | 228 to 231 | 27.8 |  | COc1cccc(N=C2SCC(CC(=O)Nc3ccc(Cl)cc3)N2C)c1.Cl (centres unmarked) [KHG21649, [2-(3-methoxyphenylimino)-3-methyl-1,3-thiazolidine-4-yl]-N-(4-chlorophenyl)-acetamide hydrochloride]
13 | 49.1 | 196.5 |  |  | CCN1C(=NC2CCCCC2)SCC1CC(=O)Nc1ccc(F)cc1.Cl (centres unmarked) [KHG24403, (2-cyclohexylimino-3-ethyl-1,3-thiazolidine-4-yl)-N-(4-fluorophenyl)-acetamide hydrochloride]
14 |  | 243 to 245 | 4.33 |  | Cc1ccc(N=C2SCC(CC(=O)Nc3ccc(Cl)cc3F)N2C)cc1.Cl (centres unmarked) [KHG23069, [2-(4-methylphenylimino)-3-methyl-1,3-thiazolidine-4-yl]-N-(4-chloro-2-fluorophenyl)-acetamide hydrochloride]
15 | 30.3 | 200 to 201 |  |  | CN1C(=NC2CCCCC2)SCC1CC(=O)NCc1ccc(F)cc1.Cl (centres unmarked) [KHG24112, (2-cyclohexylimino-3-methyl-1,3-thiazolidine-4-yl)-N-(4-fluorobenzyl)-acetamide hydrochloride]
16 | 41.3 | 178 to 180 |  |  | CC1SC(=NC2CCCCC2)N(C)C1CC(=O)Nc1ccc(OC(F)(F)F)cc1.Cl (centres unmarked) [KHG24524, (2-cyclohexylimino-3,5-dimethyl-1,3-thiazolidine-4-yl)-N-(4-trifluoromethoxyphenyl)-acetamide hydrochloride]

Row | inhibition at 10 µM [1, 2] [%] | melting point [°C] | inhibition at 10 µM [1, 3] [%] | FDSS (% inhibition)/10uM ([1]; 10 μM, HEK293 cells stably expressing α1G T-type calcium channel and Kir2.1, compounds of the examples) [%] | SMILES
17 |  | 239 to 242 | -7.7 |  | CN1C(=Nc2ccc(Cl)cc2)SCC1CC(=O)Nc1ccc(Cl)cc1.Cl (centres unmarked) [KHG21652, [2-(4-chlorophenylimino)-3-methyl-1,3-thiazolidine-4-yl]-N-(4-chlorophenyl)-acetamide hydrochloride]
18 | 62.4 | 244 |  |  | Cl.O=C(CC1CSC(=NC23CC4CC(CC(C4)C2)C3)N1C1CC1)Nc1cc(Cl)ccc1F (centres unmarked) [KHG24802, [2-(1-adamantylimino)-3-cyclopropyl-1,3-thiazolidine-4-yl]-N-(5-chloro-2-fluorophenyl)-acetamide hydrochloride]
19 | 54.4 | 161 |  |  | CCCCN1C(=NC23CC4CC(CC(C4)C2)C3)SCC1CC(=O)Nc1ccc(Cl)cc1F.Cl (centres unmarked) [KHG24783, [2-(1-adamantylimino)-3-(n-butyl)-1,3-thiazolidine-4-yl]-N-(4-chloro-2-fluorophenyl)-acetamide hydrochloride]
20 | 34.8 | 250.7 |  |  | CC(C)c1ccc(NC(=O)CC2CSC(=NCC3CCCCC3)N2C)cc1.Cl (centres unmarked) [KHG24222, (2-cyclohexylmethylimino-3-methyl-1,3-thiazolidine-4-yl)-N-(4-isopropylphenyl)-acetamide hydrochloride]
21 | 46 | 183.4 |  |  | CCCCN1C(=NC2CCCCC2)SCC1CC(=O)Nc1ccc(C)cc1.Cl (centres unmarked) [KHG24285, [2-cyclohexylimino-3-(n-butyl)-1,3-thiazolidine-4-yl]-N-(4-methylphenyl)-acetamide hydrochloride]
22 | 48.7 | 238.5 |  |  | Cl.O=C(CC1CSC(=NC2CCCCC2)N1Cc1ccccc1)Nc1ccc(C(F)(F)F)cc1 (centres unmarked) [KHG24407, (2-cyclohexylimino-3-benzyl-1,3-thiazolidine-4-yl)-N-(4-trifluoromethylphenyl)-acetamide hydrochloride]
23 | 35.7 | 219.5 to 220 |  |  | CN1C(=NC2CC2)SCC1CC(=O)Nc1ccc(Oc2ccccc2)cc1.Cl (centres unmarked) [KHG24141, (2-cyclopropylimino-3-methyl-1,3-thiazolidine-4-yl)-N-(4-phenoxyphenyl)-acetamide hydrochloride]
24 |  | 190 to 194 | 5.89 |  | CC(C)Oc1cc(N=C2SCC(CC(=O)Nc3ccc(C(C)C)cc3)N2C)c(F)cc1Cl.Cl (centres unmarked) [KHG21944, [2-(4-chloro-5-isopropoxy-2-fluorophenylimino)-3-methyl-1,3-thiazolidine-4-yl]-N-(4-isopropylphenyl)-acetamide hydrochloride]
25 |  | 239 to 240 | 7.37 |  | CN1C(=Nc2ccc(Cl)cc2)SCC1CC(=O)Nc1ccc(Cl)cc1F.Cl (centres unmarked) [KHG23064, [2-(4-chlorophenylimino)-3-methyl-1,3-thiazolidine-4-yl]-N-(4-chloro-2-fluorophenyl)-acetamide hydrochloride]
26 |  | 223 |  | 47.2 | CN1C(=NC2CCCCCC2)SCC1C(=O)NCc1ccccc1C(F)(F)F (centres unmarked) [KHG24671, (2-cycloheptylimino-3-methyl-1,3-thiazolidine-4-yl)-N-(2-trifluoromethylbenzyl)-carboxamide]
27 | 40.8 | 225 |  |  | CC(C)c1ccc(NC(=O)CC2CSC(=NCCc3ccccc3)N2C)cc1.Cl (centres unmarked) [KHG24220, (2-phenethylimino-3-methyl-1,3-thiazolidine-4-yl)-N-(4-isopropylphenyl)-acetamide hydrochloride]
28 | 53.8 | 177 |  |  | CCN1C(=NC2CCCCC2)SCC1CC(=O)Nc1cc([N+](=O)[O-])ccc1F.Cl (centres unmarked) [KHG24278, [2-cyclohexylimino-3-ethyl-1,3-thiazolidine-4-yl]-N-(2-fluoro-5-nitrophenyl)-acetamide hydrochloride]
29 | 37.6 | 213 |  |  | CCCCc1ccc(NC(=O)CC2CSC(=NC34CC5CC(CC(C5)C3)C4)N2CCC)cc1.Cl (centres unmarked) [KHG24808, [2-(1-adamantylimino)-3-n-propyl-1,3-thiazolidine-4-yl]-N-(4-n-butylphenyl)-acetamide hydrochloride]
30 | 46.1 | 220 to 223 |  |  | CC1SC(=NC2CCCC2)N(C)C1CC(=O)Nc1ccc(C(C)(C)C)cc1.Cl (centres unmarked) [KHG24656, (2-cyclopentylimino-3,5-dimethyl-1,3-thiazolidine-4-yl)-N-(4-t-butylphenyl)-acetamide hydrochloride]
31 | 48.4 | 238 to 239.5 |  |  | CN1C(=NC2CCCCC2)SCC1CC(=O)Nc1cccc(F)c1.Cl (centres unmarked) [KHG24109, (2-cyclohexylimino-3-methyl-1,3-thiazolidine-4-yl)-N-(3-fluorophenyl)-acetamide hydrochloride]

From patent US7998989B2, “2-Imino-1,3-thiazoline-based compounds and T-type calcium channel inhibitors containing the same” (Korea Institute of Science and Technology, priority 2007, dated 2011)
